Reference: PMC6925768, “Determination of Anlotinib, a Tyrosine Kinase Inhibitor, in Rat Plasma by UHPLC-MS/MS and Its Application to a Pharmacokinetic Study” (Journal of Analytical Methods in Chemistry, 2019)
Read-outs that look alike come from different tables or passages of the source. Values belong to the compound of their own block, whether it stands above or below them.

Tests used:
[1] = Stability of stock solutions; type: physicochemical; settings: stock solution in methanol; for Stability of stock solution, long-term test: 4°C for 2 weeks; for Stability of stock solution, short-term test: room temperature for 24 hours
Procedure: (§1) The stability of three concentrations (0.25, 5, 40 ng/mL) of QCs was analyzed under typical storage conditions: (1) rat plasma stored at room temperature for 12 hours (short-term stability); (2) rat plasma stored at −80°C for 30 days (long-term stability); and (3) under three freeze-thaw cycles from −80°C to room temperature. The stability of stock solution of anlotinib and IS was analyzed under room temperature for 24 hours as well as at 4°C for 2 weeks.

[2] = system: human tumor xenograft models; parameters: method as in PMID 27716285; settings: especially colon, ovarian, liver, renal, glioma, non-small-cell lung; cited from earlier work
[3] = system: advanced non-small-cell lung cancer; parameters: method as in PMID 30098152; settings: advanced non-small-cell lung cancer after second-line or further treatment; cited from earlier work
[4] = system: refractory advanced non-small-cell lung cancer; parameters: method as in PMID 29438373; settings: patients with refractory advanced non-small-cell lung cancer; cited from earlier work
[5] = Stability of anlotinib in rat plasma under various storage conditions; type: in vitro ADME; settings: n = 3; for Short-term stability, Mean / Short-term stability, RE: room temperature 12 hours; for Freeze/thaw stability, Mean / Freeze/thaw stability, RE: three freeze-thaw cycles −80°C to room temperature; for Long-term stability, Mean / Long-term stability, RE: −80°C 30 days
Procedure: as §1

[6] = Pharmacokinetic study in rats after single oral administration; type: in vivo, Sprague Dawley rats; settings: 10 mg/kg
Procedure: Male Sprague Dawley rats weighing 250 ± 20 g were purchased from the Shanghai Laboratory Animal Co. (Shanghai, China). All experimental rats were housed in a standard cage with a humidity of 50 ± 20%, a constant temperature of 23–25°C, and a light/dark cycle condition for at least 7 days before the pharmacokinetic study. After 8 h fasting (animals had free access to water), the rats received a single oral administration with anlotinib at a dosage of 10 mg/kg. All animal experiments in present study were approved by the Institutional Animal Care and Use Committee of Wenzhou Medical University (Wenzhou, China).
Blood samples (150 μL) were collected from the tail vein before the dose and at 0.17, 0.75, 1, 1.5, 2, 3, 4, 5, 7, 9, 12, 24, and 48 h after the oral administration of anlotinib. These series of blood samples were transferred into 1.5 mL heparinized tubes. The rat blood samples were immediately centrifuged for 10 min at 5,000 rpm at 4°C, and then the separation of plasma was stored at −80°C until analysis. The noncompartmental statistical model was performed to calculate the pharmacokinetic parameters of anlotinib by Drug and Statistics 3.0 software.

[7] = parameters: method as in PMID 29620050; settings: reported literature, different dose; cited from earlier work
[8] = male, Sprague Dawley, rat plasma, n = 6
[9] = male, Sprague Dawley, rat, plasma, po, n = 6

- Stability of stock solution, long-term test [1]: 98.73%
- Stability of stock solution, short-term test [1]: 99.35%
SMILES: Cc1ccc(NC(=O)c2ccc(CN3CCN(C)CC3)cc2)cc1Nc1nccc(-c2cccnc2)n1 [IS, Imatinib]

- Short-term stability, Mean ([5]; 0.25 ng/ml in rat plasma): 0.26 ng/mL
- Short-term stability, RE ([5]; 0.25 ng/ml in rat plasma): 4.65%
- Freeze/thaw stability, Mean ([5]; 0.25 ng/ml in rat plasma): 0.26 ng/mL
- Freeze/thaw stability, RE ([5]; 0.25 ng/ml in rat plasma): 2.03%
- Long-term stability, Mean ([5]; 0.25 ng/ml in rat plasma): 0.25 ng/mL
- Long-term stability, RE ([5]; 0.25 ng/ml in rat plasma): −1.55%
- Autosampler stability, Mean ([5]; 0.25 ng/ml): 0.24 ng/mL
- Autosampler stability, RE ([5]; 0.25 ng/ml): −2.27%
- Short-term stability, Mean ([5]; 5 ng/ml in rat plasma): 5.21 ng/mL
- Short-term stability, RE ([5]; 5 ng/ml in rat plasma): 4.27%
- Freeze/thaw stability, Mean ([5]; 5 ng/ml in rat plasma): 4.94 ng/mL
- Freeze/thaw stability, RE ([5]; 5 ng/ml in rat plasma): −1.13%
- Long-term stability, Mean ([5]; 5 ng/ml in rat plasma): 5.19 ng/mL
- Long-term stability, RE ([5]; 5 ng/ml in rat plasma): 3.75%
- Autosampler stability, Mean ([5]; 5 ng/ml): 5.14 ng/mL
- Autosampler stability, RE ([5]; 5 ng/ml): 2.75%
- Short-term stability, Mean ([5]; 40 ng/ml in rat plasma): 41.64 ng/mL
- Short-term stability, RE ([5]; 40 ng/ml in rat plasma): 4.1%
- Freeze/thaw stability, Mean ([5]; 40 ng/ml in rat plasma): 40.55 ng/mL
- Freeze/thaw stability, RE ([5]; 40 ng/ml in rat plasma): 1.39%
- Long-term stability, Mean ([5]; 40 ng/ml in rat plasma): 41.19 ng/mL
- Long-term stability, RE ([5]; 40 ng/ml in rat plasma): 2.97%
- Autosampler stability, Mean ([5]; 40 ng/ml): 41.14 ng/mL
- Autosampler stability, RE ([5]; 40 ng/ml): 2.85%
- AUC(0-inf) [6, 8]: 0.186 ± 0.0492 µg·h/mL
- CL/F [6, 8]: 56.5 L/h/kg
- MRT last ([6]; male, Sprague Dawley, rat plasma, n = 6, read-out: MRT(0-t)): 8.98 ± 1.45 h
- MRT inf ([6]; male, Sprague Dawley, rat plasma, n = 6, read-out: MRT(0-∞)): 9.2 ± 1.21 h
- half-life ([6]; male, Sprague Dawley, rat plasma, n = 6, read-out: t 1/2 z (converted)): 5.05 ± 0.62 h
- Cmax [6, 9]: 0.0242 ± 0.00431 µg/mL
- Tmax [6, 9]: 3.33 h
- AUC0-t ([6]; male, Sprague Dawley, rat, plasma, po, n = 6, read-out: AUC0-t): 0.184 ± 0.0498 µg·h/mL
- AUC0-t ([6]; rat plasma, n = 6): 0.184431 ± 0.049827 µg·h/mL
- C max ([6]; rat plasma, n = 6): 0.024219 ± 0.004311 µg/mL
- T max ([6]; rat plasma, n = 6): 3.333 ± 0.816 h
- V/F ([6]; rat plasma, n = 6): 406.029 ± 72.748 L/kg
- Stability of stock solution, long-term test [1]: 95.96%
- Stability of stock solution, short-term test [1]: 98.96%
SMILES: COc1cc2c(Oc3ccc4[nH]c(C)cc4c3F)ccnc2cc1OCC1(N)CC1 [anlotinib, Anlotinib]
- Activity against human tumor xenograft models [2]: broad activity
- Overall survival and progression-free survival [3]: improve overall survival (OS) and progression-free survival (PFS)
- Progression-free survival versus placebo [4]: obvious progression-free survival (PFS) benefits
- Toxicity tolerance [4]: good toxicity tolerance
- t1/2 [7]: 5.7 ± 3.1 h
